Tests used:
Assay type in all cases: in vivo
[1] = system: melon aphids (Aphis gossypii Glover); assay: Mite/insect screen, sprayed squash cotyledons (MA); settings: Aphis gossypii, percent mortality, read-out: MA RESULTS %; for mortality at 200 ppm: spray rate 200 ppm; for mortality at 400 ppm: spray rate 400 ppm
Summary of the method: (§1)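 Compounds dissolved in acetone/alcohol with TOXIMUL R/S emulsifiers, diluted with water to test concentrations, and sprayed to runoff on both leaf surfaces at 10 psi, then dried 1 h. Excised treated squash leaves given southern armyworm larvae; aphid and spider mite tests on sprayed squash cotyledons. Percent mortality and phytotoxicity scored after standard exposure.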

[2] = system: Pyricularia oryzae (rice blast); settings: disease control rating, foliar spray, host rice; 400 ppm (+++ at 100 ppm)
[3] = system: Puccinia recondita tritici (leaf rust); assay: Greenhouse Test 1, foliar spray fungicide screen (LEAF RUST), host wheat; settings: disease control rating, 400 ppm (+++ at 100 ppm)
[4] = system: Cercospora beticola (leaf spot); assay: Greenhouse Test 1, foliar spray fungicide screen (LEAF SPOT), host sugar beet; settings: disease control rating, 400 ppm (+++ at 100 ppm)
[5] = system: Pseudoperonospora cubensis (downy mildew); assay: Greenhouse Test 1, foliar spray fungicide screen (DOWN MDEW), host squash; settings: disease control rating, 400 ppm (+++ at 100 ppm)
[6] = system: Septoria tritici (leaf blotch); assay: Greenhouse Test 1, foliar spray fungicide screen (LEAF BLOT), host wheat; settings: disease control rating, 400 ppm (+++ at 100 ppm)
[7] = system: Southern corn rootworm (Diabrotica undecimpuctata howardi Barber); assay: Mite/insect screen, soil treatment (CRW); settings: Diabrotica, percent mortality, soil treatment, read-out: CRW RESULTS %; for mortality at 12 ppm: CRW rate 12.00 ppm; for mortality at 24 ppm: CRW rate 24.00 ppm
Summary of the method: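 Five 2–3 instar larvae were placed on dry sandy soil with a presoaked corn seed after the soil had received 1 mL of compound solution and dried 6–12 h; cups were kept capped at 23°C. Mortality (%) and phytotoxicity were read after standard exposure. Formulation: acetone/alcohol with emulsifiers, water-diluted.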

[8] = system: Venturia inaequalis (apple scab); assay: Greenhouse Test 1, foliar spray fungicide screen (APPL SCAB), host apple seedling; settings: disease control rating, 400 ppm (+++ at 100 ppm)
[9] = system: southern armyworm (Spodopetra eridania Cramer); assay: Mite/insect screen, sprayed squash leaves (SAW); settings: Spodoptera eridania, percent mortality, read-out: SAW RESULTS %; for mortality at 200 ppm: spray rate 200 ppm; for mortality at 400 ppm: spray rate 400 ppm
Summary of the method: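 Steps: formulate compound in acetone/alcohol 50:50 carrying emulsifiers; dilute with water; spray leaves until runoff on upper and lower surfaces; air-dry one hour; for armyworm, excise two […] leaves into a dish of larvae; after exposure, score mortality and plant injury.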

[10] = system: Erysiphe graminis tritici (powdery mildew); assay: Greenhouse Test 1, foliar spray fungicide screen (POWD MDEW), host wheat; settings: disease control rating, 400 ppm (+++ at 100 ppm)
[11] = system: Botrytis cinerea (gray mold); assay: Greenhouse Test 1, foliar spray fungicide screen (GRAY MOLD), host grape berries; settings: disease control rating, 400 ppm (+++ at 100 ppm)
[12] = system: rosy apple aphid; assay: Mite and insect field trials; settings: plant: apples
Description: (§2) 4-[2-[4-(t-butyl)phenyl]ethoxy]quinazoline and 4-[2-(1,1'-biphenyl)-4 biphenyl)-4-ylethoxy]quinazoline were evaluated against a variety of mite and insect species in field trials.

[13] = system: cereal aphid; assay: Mite and insect field trials; settings: plant: barley
Description: as §2

[14] = system: European red mite; assay: Mite and insect field trials; settings: plant: apples
Description: as §2

[15] = system: black citrus aphid; assay: Mite and insect field trials; settings: plant: lemon
Description: as §2

[16] = system: wheat aphid; assay: Mite and insect field trials; settings: plant: wheat
Description: as §2

[17] = system: green peach aphid; assay: Mite and insect field trials
Description: as §2

[18] = system: yellow hickory aphid; assay: Mite and insect field trials; settings: plant: pecan nut
Description: as §2

[19] = system: Dawson-hop aphid; assay: Mite and insect field trials; settings: plant: hops
Description: as §2

[20] = system: thrips; assay: Mite and insect field trials; settings: plant: privet
Description: as §2

[21] = system: green cloverworm; assay: Mite and insect field trials; settings: plant: alfalfa (Lucerne)
Description: as §2

[22] = system: white apple leafhopper; assay: Mite and insect field trials; settings: plant: apples
Description: as §2

[23] = system: glasshouse whitefly; assay: Mite and insect field trials; settings: tested on tomato
Description: as §2

[24] = system: apple aphid; assay: Mite and insect field trials; settings: plant: apples
Description: as §2

[25] = system: potato leafhopper; assay: Mite and insect field trials; settings: plant: alfalfa (Lucerne)
Description: as §2

[26] = system: bean aphid; assay: Mite and insect field trials; settings: plant: bean, faba broad
Description: as §2

[27] = system: grape leafhopper; assay: Mite and insect field trials; settings: plant: grape (European)
Description: as §2

[28] = system: potato aphid; assay: Mite and insect field trials; settings: plant: turnip
Description: as §2

[29] = system: greenhouse thrips; assay: Mite and insect field trials; settings: plant: azaleas
Description: as §2

[30] = system: apple rust mite; assay: Mite and insect field trials; settings: plant: apples
Description: as §2

[31] = system: tarnished plant bug; assay: Mite and insect field trials; settings: plant: alfalfa (Lucerne)
Description: as §2

[32] = system: pea aphid; assay: Mite and insect field trials
Description: as §2

[33] = system: grape thrips; assay: Mite and insect field trials; settings: plant: grape (European)
Description: as §2

[34] = system: twospotted spider mite; assay: Mite and insect field trials
Description: as §2

[35] = system: cotton aphid; assay: Mite and insect field trials; settings: plant: cotton
Description: as §2

[36] = system: Twospotted spider mites (Tetranychus urticae Koch); assay: Mite/insect screen, sprayed squash cotyledons (SM); settings: Tetranychus urticae, percent mortality, read-out: SM RESULTS %; for mortality at 200 ppm: spray rate 200 ppm; for mortality at 400 ppm: spray rate 400 ppm
Summary of the method: as §1

## c1ccc(-c2ccc(CCOc3ncnc4ccccc34)cc2)cc1 [Example 85, 4-[2-(1,1'-biphenyl)-4-ylethoxy]quinazoline]
[1]
  mortality at 200 ppm: 100%
  mortality at 400 ppm: 100%
[2]
  RICE BLAST: + (+ = 20-89% control at 400 ppm)
[3]
  LEAF RUST: +++ (+++ = 90-100% control at 100 ppm)
[4]
  LEAF SPOT: - (- = 0-19% control at 400 ppm)
[5]
  DOWN MDEW: +++ (+++ = 90-100% control at 100 ppm)
[6]
  LEAF BLOT: +++ (+++ = 90-100% control at 100 ppm)
[7]
  mortality at 12 ppm: 0%
  mortality at 24 ppm: 0%
[8]
  APPL SCAB: - (- = 0-19% control at 400 ppm)
[9]
  mortality at 200 ppm: 10%
  mortality at 400 ppm: 80%
[10]
  POWD MDEW: ++ (++ = 90-100% control at 400 ppm)
[11]
  GRAY MOLD: - (- = 0-19% control at 400 ppm)
[12]
  mite or insect species against which they showed activity in field trials: rosy apple aphid
[13]
  mite or insect species against which they showed activity in field trials: cereal aphid
[14]
  mite or insect species against which they showed activity in field trials: European red mite
[15]
  mite or insect species against which they showed activity in field trials: black citrus aphid
[16]
  mite or insect species against which they showed activity in field trials: wheat aphid
[17]; plant: apples
  mite or insect species against which they showed activity in field trials: green peach aphid
[17]; plant: sugar beet
  mite or insect species against which they showed activity in field trials: green peach aphid
[18]
  mite or insect species against which they showed activity in field trials: yellow hickory aphid
[19]
  mite or insect species against which they showed activity in field trials: Dawson-hop aphid
[20]
  mite or insect species against which they showed activity in field trials: thrips
[21]
  mite or insect species against which they showed activity in field trials: green cloverworm
[22]
  mite or insect species against which they showed activity in field trials: white apple leafhopper
[23]
  activity against glasshouse whitefly in field trials: showing activity
[24]
  mite or insect species against which they showed activity in field trials: apple aphid
[25]
  mite or insect species against which they showed activity in field trials: potato leafhopper
[26]
  mite or insect species against which they showed activity in field trials: bean aphid
[27]
  mite or insect species against which they showed activity in field trials: grape leafhopper
[28]
  mite or insect species against which they showed activity in field trials: potato aphid
[29]
  mite or insect species against which they showed activity in field trials: greenhouse thrips
[30]
  mite or insect species against which they showed activity in field trials: apple rust mite
[31]
  mite or insect species against which they showed activity in field trials: tarnished plant bug
[32]; plant: alfalfa (Lucerne)
  mite or insect species against which they showed activity in field trials: pea aphid
[32]; plant: pea, garden (English)
  mite or insect species against which they showed activity in field trials: pea aphid
[33]
  mite or insect species against which they showed activity in field trials: grape thrips
[34]; plant: azaleas
  mite or insect species against which they showed activity in field trials: twospotted spider mite
[34]; plant: broccoli
  mite or insect species against which they showed activity in field trials: twospotted spider mite
[34]; plant: plum (Japanese)
  mite or insect species against which they showed activity in field trials: twospotted spider mite
[35]
  mite or insect species against which they showed activity in field trials: cotton aphid
[36]
  mortality at 200 ppm: 100%
  mortality at 400 ppm: 100%

## Cc1ccc(CCOc2ncnc3ccccc23)cc1 [Example 87, 4-[2-(4-methylphenyl)ethoxy]quinazoline]
[1]
  mortality at 200 ppm: 100%
  mortality at 400 ppm: 100%
[2]
  RICE BLAST: +++ (+++ = 90-100% control at 100 ppm)
[3]
  LEAF RUST: ++ (++ = 90-100% control at 400 ppm)
[4]
  LEAF SPOT: + (+ = 20-89% control at 400 ppm)
[5]
  DOWN MDEW: +++ (+++ = 90-100% control at 100 ppm)
[6]
  LEAF BLOT: - (- = 0-19% control at 400 ppm)
[7]
  mortality at 12 ppm: 0%
  mortality at 24 ppm: 0%
[8]
  APPL SCAB: - (- = 0-19% control at 400 ppm)
[9]
  mortality at 200 ppm: 0%
  mortality at 400 ppm: 50%
[10]
  POWD MDEW: ++ (++ = 90-100% control at 400 ppm)
[11]
  GRAY MOLD: - (- = 0-19% control at 400 ppm)
[36]
  mortality at 200 ppm: 90%
  mortality at 400 ppm: 90%

## c1ccc(-c2ccc(CCNc3ncnc4ccccc34)cc2)cc1 [Example 106, N-[2-(1,1'-biphenyl)-4-ylethyl]-4-quinazolinamine]
[1]
  mortality at 200 ppm: 0%
  mortality at 400 ppm: 80%
[2]
  RICE BLAST: +++ (+++ = 90-100% control at 100 ppm)
[3]
  LEAF RUST: +++ (+++ = 90-100% control at 100 ppm)
[4]
  LEAF SPOT: + (+ = 20-89% control at 400 ppm)
[5]
  DOWN MDEW: +++ (+++ = 90-100% control at 100 ppm)
[6]
  LEAF BLOT: +++ (+++ = 90-100% control at 100 ppm)
[7]
  mortality at 12 ppm: 0%
  mortality at 24 ppm: 0%
[8]
  APPL SCAB: +++ (+++ = 90-100% control at 100 ppm)
[9]
  mortality at 200 ppm: 90%
  mortality at 400 ppm: 80%
[10]
  POWD MDEW: +++ (+++ = 90-100% control at 100 ppm)
[11]
  GRAY MOLD: - (- = 0-19% control at 400 ppm)
[36]
  mortality at 200 ppm: 100%
  mortality at 400 ppm: 80%

## CC(=O)N(CCc1ccc(-c2ccccc2)cc1)c1ncnc2ccccc12 [Example 108, N-[2-(1,1'-biphenyl)-4-ylethyl]-N-(4-quinazolinyl)acetamide]
[1]
  mortality at 200 ppm: 30%
  mortality at 400 ppm: 20%
[2]
  RICE BLAST: +++ (+++ = 90-100% control at 100 ppm)
[3]
  LEAF RUST: + (+ = 20-89% control at 400 ppm)
[4]
  LEAF SPOT: ++ (++ = 90-100% control at 400 ppm)
[5]
  DOWN MDEW: +++ (+++ = 90-100% control at 100 ppm)
[6]
  LEAF BLOT: +++ (+++ = 90-100% control at 100 ppm)
[7]
  mortality at 12 ppm: 0%
  mortality at 24 ppm: 0%
[8]
  APPL SCAB: - (- = 0-19% control at 400 ppm)
[9]
  mortality at 200 ppm: 0%
  mortality at 400 ppm: 0%
[10]
  POWD MDEW: + (+ = 20-89% control at 400 ppm)
[11]
  GRAY MOLD: - (- = 0-19% control at 400 ppm)
[36]
  mortality at 200 ppm: 60%
  mortality at 400 ppm: 90%

## Clc1ccccc1OCCOc1ncnc2ccccc12 [Example 110, 4-[2-(2-chlorophenoxy)ethoxy]quinazoline]
[1]
  mortality at 200 ppm: 0%
  mortality at 400 ppm: 0%
[2]
  RICE BLAST: + (+ = 20-89% control at 400 ppm)
[3]
  LEAF RUST: ++ (++ = 90-100% control at 400 ppm)
[4]
  LEAF SPOT: - (- = 0-19% control at 400 ppm)
[5]
  DOWN MDEW: + (+ = 20-89% control at 400 ppm)
[6]
  LEAF BLOT: - (- = 0-19% control at 400 ppm)
[7]
  mortality at 12 ppm: 0%
  mortality at 24 ppm: 0%
[8]
  APPL SCAB: - (- = 0-19% control at 400 ppm)
[9]
  mortality at 200 ppm: 0%
  mortality at 400 ppm: 0%
[10]
  POWD MDEW: - (- = 0-19% control at 400 ppm)
[11]
  GRAY MOLD: - (- = 0-19% control at 400 ppm)
[36]
  mortality at 200 ppm: 0%
  mortality at 400 ppm: 0%

— EP0326329B1, “Quinazoline derivatives useful as insecticides” (Dow AgroSciences LLC, priority 1988, dated 1989)
